Results published in PMC8185074, “Anchor extension: a structure-guided approach to design cyclic peptides targeting enzyme active sites” (Nature Communications, 2021).
pIC50: −log10 of the molar value.

What was measured:
Assay type in all cases: biochemical
HDAC2 [1] = biological target: T1, HDAC2 (Homo sapiens, UniProt Q92769); assay: Initial HDAC2 IC50 estimate (BPS Biosciences HDAC fluorogenic assay kit); details: Supplementary Dataset 2; read-out: HDAC2 activity (initial activity)
T1 construct: purchased Reaction Biology Corporation (assay run by the CRO)
How it was run: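 Inhibition measured by kit-based fluorogenic HDAC activity assays, with each point in duplicate or triplicate. Values come from a full 1 µM–100 pM series (1:10 steps) or are range estimates from just 20 nM and 200 nM.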

HDAC2 [2] = biological target: T1, HDAC2; assay: HDAC2 inhibition, full IC50 measurement (Reaction Biology; fluorogenic p53 peptide RHKK(Ac)AMC)
How it was run: (§1)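 Test peptides were dispensed acoustically with enzyme in 50 mM Tris-HCl pH 8.0, 137 mM NaCl, 2.7 mM KCl, 1 mM MgCl2, 1 mg/ml BSA and 1% DMSO. After adding 50 μM RHKK(Ac)AMC, reactions ran 1 h at 30 °C, then developer was added.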

HDAC1 = biological target: T2, HDAC1 (Homo sapiens, UniProt Q13547); assay: HDAC1 inhibition, full IC50 measurement (Reaction Biology; fluorogenic p53 peptide RHKK(Ac)AMC)
T2 construct: purchased Reaction Biology Corporation (assay run by the CRO)
How it was run: as §1

HDAC8 = biological target: T3, HDAC8 (Homo sapiens, UniProt Q9BY41); assay: HDAC8 inhibition, full IC50 measurement (Reaction Biology; fluorogenic p53 peptide RHKK(Ac)AMC)
T3 construct: purchased Reaction Biology Corporation (assay run by the CRO)
T3 sequence (Q9BY41 1-377): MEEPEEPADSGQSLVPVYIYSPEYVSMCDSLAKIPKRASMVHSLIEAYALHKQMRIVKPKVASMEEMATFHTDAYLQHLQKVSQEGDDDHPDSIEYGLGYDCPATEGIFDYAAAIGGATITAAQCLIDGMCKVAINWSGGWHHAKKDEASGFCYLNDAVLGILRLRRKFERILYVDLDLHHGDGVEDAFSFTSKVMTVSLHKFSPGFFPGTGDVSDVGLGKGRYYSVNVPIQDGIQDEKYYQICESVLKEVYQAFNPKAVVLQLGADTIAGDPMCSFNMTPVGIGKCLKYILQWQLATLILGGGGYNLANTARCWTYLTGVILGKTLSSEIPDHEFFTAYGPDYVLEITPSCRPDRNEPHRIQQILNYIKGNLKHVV
How it was run: as §1

HDAC3 = biological target: T4, HDAC3 (Homo sapiens, UniProt O15379); assay: HDAC3 inhibition, full IC50 measurement (Reaction Biology; fluorogenic p53 peptide RHKK(Ac)AMC)
T4 construct: purchased Reaction Biology Corporation (assay run by the CRO)
How it was run: as §1

T1 sequence (Q92769 whole entry): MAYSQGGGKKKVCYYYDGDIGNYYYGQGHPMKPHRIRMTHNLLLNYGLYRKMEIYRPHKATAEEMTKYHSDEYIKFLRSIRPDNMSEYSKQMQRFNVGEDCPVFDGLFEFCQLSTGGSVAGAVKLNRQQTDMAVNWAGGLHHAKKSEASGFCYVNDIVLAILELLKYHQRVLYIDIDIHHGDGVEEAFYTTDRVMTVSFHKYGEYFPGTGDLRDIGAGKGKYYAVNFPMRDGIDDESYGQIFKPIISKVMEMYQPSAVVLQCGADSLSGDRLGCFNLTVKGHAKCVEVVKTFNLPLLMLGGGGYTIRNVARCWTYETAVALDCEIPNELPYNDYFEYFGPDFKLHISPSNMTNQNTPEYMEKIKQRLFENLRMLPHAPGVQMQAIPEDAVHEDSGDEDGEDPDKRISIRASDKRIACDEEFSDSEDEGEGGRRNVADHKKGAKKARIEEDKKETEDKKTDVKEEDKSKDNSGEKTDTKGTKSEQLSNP
T2 sequence (Q13547 whole entry): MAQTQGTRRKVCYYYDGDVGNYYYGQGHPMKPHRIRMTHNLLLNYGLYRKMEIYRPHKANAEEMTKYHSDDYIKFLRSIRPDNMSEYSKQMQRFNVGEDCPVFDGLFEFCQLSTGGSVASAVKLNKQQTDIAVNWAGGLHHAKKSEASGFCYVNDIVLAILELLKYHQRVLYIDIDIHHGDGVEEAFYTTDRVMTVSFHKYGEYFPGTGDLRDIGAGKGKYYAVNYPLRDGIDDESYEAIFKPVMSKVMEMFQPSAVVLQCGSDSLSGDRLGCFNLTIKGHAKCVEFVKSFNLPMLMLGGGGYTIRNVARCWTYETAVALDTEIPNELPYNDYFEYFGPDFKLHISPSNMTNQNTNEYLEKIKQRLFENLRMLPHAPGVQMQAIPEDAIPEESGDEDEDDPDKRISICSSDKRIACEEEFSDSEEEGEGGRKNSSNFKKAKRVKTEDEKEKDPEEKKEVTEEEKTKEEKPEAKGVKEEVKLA
T4 sequence (O15379 whole entry): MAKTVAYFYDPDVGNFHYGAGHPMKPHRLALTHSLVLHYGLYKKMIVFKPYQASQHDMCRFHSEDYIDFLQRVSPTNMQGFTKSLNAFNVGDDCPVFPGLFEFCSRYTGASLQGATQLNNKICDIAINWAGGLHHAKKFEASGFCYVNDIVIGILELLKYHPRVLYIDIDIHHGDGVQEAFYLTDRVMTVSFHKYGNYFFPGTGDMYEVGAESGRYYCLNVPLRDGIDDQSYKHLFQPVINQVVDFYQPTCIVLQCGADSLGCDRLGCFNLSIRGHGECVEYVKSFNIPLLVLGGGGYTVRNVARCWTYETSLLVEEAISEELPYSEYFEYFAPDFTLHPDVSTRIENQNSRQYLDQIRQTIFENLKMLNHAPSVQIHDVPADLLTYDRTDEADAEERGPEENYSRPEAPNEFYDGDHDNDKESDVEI
T4 sequence (Q9Y618 395-489 partner limits assumed): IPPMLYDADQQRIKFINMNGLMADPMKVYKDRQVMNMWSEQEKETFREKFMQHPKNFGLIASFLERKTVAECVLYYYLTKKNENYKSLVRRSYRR

Structure (SMILES): N[C@@H](CCCCCS)C(=O)O [SHA, 2S-2-amino-7-sulfanylheptanoic acid]
- pIC50 (HDAC2 [1]): 5.30
- HDAC2 inhibition potency in words (HDAC2 [2]): low micro-molar to high nano-molar affinities
- HDAC2 raw activity signal (HDAC2 [2]; Conc. 1.00E-05 M): 210566
- HDAC2 raw activity signal (HDAC2 [2]; Conc. 1.11E-06 M): 643731
- HDAC2 raw activity signal (HDAC2 [2]; Conc. 1.23E-07 M): 728862
- HDAC2 raw activity signal (HDAC2 [2]; Conc. 1.37E-08 M): 787686
- HDAC2 raw activity signal (HDAC2 [2]; Conc. 1.52E-09 M): 708004
- HDAC2 raw activity signal (HDAC2 [2]; Conc. 3.33E-06 M): 523867
- HDAC2 raw activity signal (HDAC2 [2]; Conc. 3.70E-07 M): 682189
- HDAC2 raw activity signal (HDAC2 [2]; Conc. 4.12E-08 M): 772929
- HDAC2 raw activity signal (HDAC2 [2]; Conc. 4.57E-09 M): 735698
- HDAC2 raw activity signal (HDAC2 [2]; Conc. 5.08E-10 M): 743884
- pIC50 (HDAC2 [2]; read-out: HDAC2 IC50): 5.27
- HDAC1 inhibition potency in words (HDAC1): low micro-molar to high nano-molar affinities
- HDAC1 raw activity signal (HDAC1; Conc. 1.00E-05 M): 155805
- HDAC1 raw activity signal (HDAC1; Conc. 1.11E-06 M): 648714
- HDAC1 raw activity signal (HDAC1; Conc. 1.23E-07 M): 748850
- HDAC1 raw activity signal (HDAC1; Conc. 1.37E-08 M): 768411
- HDAC1 raw activity signal (HDAC1; Conc. 1.52E-09 M): 737474
- HDAC1 raw activity signal (HDAC1; Conc. 3.33E-06 M): 525567
- HDAC1 raw activity signal (HDAC1; Conc. 3.70E-07 M): 713862
- HDAC1 raw activity signal (HDAC1; Conc. 4.12E-08 M): 763721
- HDAC1 raw activity signal (HDAC1; Conc. 4.57E-09 M): 780017
- HDAC1 raw activity signal (HDAC1; Conc. 5.08E-10 M): 759317
- HDAC8 inhibition potency in words (HDAC8): low micro-molar to high nano-molar affinities
- HDAC8 raw activity signal (HDAC8; Conc. 1.00E-05 M): 485885
- HDAC8 raw activity signal (HDAC8; Conc. 1.11E-06 M): 715893
- HDAC8 raw activity signal (HDAC8; Conc. 1.23E-07 M): 664184
- HDAC8 raw activity signal (HDAC8; Conc. 1.37E-08 M): 813063
- HDAC8 raw activity signal (HDAC8; Conc. 1.52E-09 M): 850527
- HDAC8 raw activity signal (HDAC8; Conc. 3.33E-06 M): 572309
- HDAC8 raw activity signal (HDAC8; Conc. 3.70E-07 M): 755715
- HDAC8 raw activity signal (HDAC8; Conc. 4.12E-08 M): 855669
- HDAC8 raw activity signal (HDAC8; Conc. 4.57E-09 M): 817878
- HDAC8 raw activity signal (HDAC8; Conc. 5.08E-10 M): 743919
- HDAC3 inhibition potency in words (HDAC3): low micro-molar to high nano-molar affinities
- HDAC3 raw activity signal (HDAC3; Conc. 1.00E-05 M): 305013
- HDAC3 raw activity signal (HDAC3; Conc. 1.11E-06 M): 772070
- HDAC3 raw activity signal (HDAC3; Conc. 1.23E-07 M): 916440
- HDAC3 raw activity signal (HDAC3; Conc. 1.37E-08 M): 1023518
- HDAC3 raw activity signal (HDAC3; Conc. 1.52E-09 M): 969054
- HDAC3 raw activity signal (HDAC3; Conc. 3.33E-06 M): 650146
- HDAC3 raw activity signal (HDAC3; Conc. 3.70E-07 M): 835487
- HDAC3 raw activity signal (HDAC3; Conc. 4.12E-08 M): 896484
- HDAC3 raw activity signal (HDAC3; Conc. 4.57E-09 M): 995503
- HDAC3 raw activity signal (HDAC3; Conc. 5.08E-10 M): 959845
